Test results from patent US12642805B2, “Use of oxygenated cholesterol sulfates for treating at least one of insulin resistance, diabetes, and prediabetes” (Medicis Pharmaceutical Corporation, priority 2020, dated 2026).
Read-outs that look alike come from different tables or passages of the source.

How the values were obtained:
[1] = tested on: Huh-7 cells; assay: whole genome bisulfite sequencing (WGBS), 5mCpG demethylation in promoter regions; type: cell-based, human
Description: (§1) Each sample, 2 μg, was sent to EpigenDx, Inc. (Hopkinton, MA) for analysis of global methylation bisulfite sequencing. The same samples, 6 μg, were sent to Novogene Co., Ltd (Tianjin, China) for analysis of whole genome bisulfite sequencing (WGBS). Total RNA was isolated using the Promega SV total RNA isolation system (Madison, WI) with DNase treatment. Each sample, 2 μg, was used for the first-strand cDNA synthesis as recommended by the manufacturer (Invitrogen, Carlsbad, CA). Real-time RT-PCR was performed using SYBR Green as the indicator on ABI 7500 Fast Real-Time PCR System (Applied Biosystems, Foster City, CA). Amplifications of β-actin or GAPDH were used as internal controls. Relative messenger RNA (mRNA) expression was quantified with the comparative cycle threshold (Ct) method using the primer set shown in Table 1.1 and was expressed as 2^−ΔΔCt.
Each sample, […] of genomic DNA spiked with 26 ng lambda DNA, was fragmented by sonication to 200-300 bp with Covaris S220, followed by end repair and adenylation. Cytosine-methylated barcodes were ligated to sonicated DNA per the manufacturer's instructions. These DNA fragments were treated twice with bisulfite using EZ DNA Methylation-Gold™ Kit (Zymo Research) before the resulting single-strand DNA fragments were PCR amplified using KAPA HiFi Hot Start Uracil and Ready Mix (2×). Library concentration was quantified by Qubit® 2.0 Flurometer (Life Technologies, CA, USA) and quantitative PCR, and the insert size was assayed on an Agilent Bioanalyzer 2100 system.
The library preparations were sequenced on an Illumina Hiseq 2500/4000 or Novaseq platform and 125 bp/150 bp paired-end reads were generated. Image analysis and base calling were performed with Illumina CASAVA pipeline. Trimmomatic (Trimmomatic-0.36) software was used for quality control. Bismark software (version 0.16.3; Krueger F, 2011) was used to perform alignments of bisulfite-treated reads to a reference genome (−X 700-dovetail). DSS software (23) was used to identify differentially methylated regions (DMRs). KOBAS software was used to test the statistical enrichment of DMR related genes in the Kyoto Encyclopedia of Genes and Genomes (KEGG) pathways.
Each sample (6 μg) was used for analysis of the whole genome bisulfite sequencing (WGBS).

[2] = tested on: Huh-7 cells; assay: real-time RT-PCR gene expression; type: cell-based, human; settings: HG 72 h; 25HC3S 6.25-50 μM, 1-8 hours
Description: as §1, with “FIGS. 3A-3D. Expression of key genes related to signaling pathways. […] Key Genes and their targeting genes expression were determined by RT-PCR analysis. […] Each” for “Each”, “[…],” for “EpigenDx,”, “Each sample, 2 μg, was used for the first-strand cDNA synthesis as recommended by the manufacturer (Invitrogen, Carlsbad, CA).” left out, “2^-ΔΔCt.” for “2^−ΔΔCt.”

[3] = single oral dose pharmacokinetic study in healthy and NASH subjects; type: in vivo, human; settings: for Cmax: po, read-out: Cmax, Mean
Description: The present Example was a randomized, dose ranging, single dose safety and pharmacokinetic study of 25HC3S administered to subjects with NASH and control healthy subjects. […] For each cohort, 10 subjects with NASH were enrolled which were further classified into cirrhotic and non-cirrhotic. Each subject received only one dose of study treatment. The second cohort was dosed after a review of safety and tolerability data from Cohort 1.

[4] = Phase 1b 4-week oral dosing study in NASH patients: pharmacokinetics; type: in vivo, human; settings: for AUC(0-t) / Cmax / half-life / Tmax: both sexes, human, plasma, oral; for AUC(0-t): read-out: AUC(0-T), mean (standard deviation); for Cmax: read-out: Cmax, mean (standard deviation); for half-life: read-out: T1/2, mean (standard deviation) (converted); for Tmax: read-out: Tmax, mean (standard deviation)
Source text: A total of 63 patients completed the study with 21 patients per dose group (completion of MRI-PDFF measurement). […] Subjects provided written informed consent to participate in the study • 2. Males or females subjects 18 years or older, at the time of signing informed consent • 3. BMI 20-45 kg/m^2 • 4. […] Value of Fibroscan®≥7 kPa • OR • b. MRE≥2.75 kPa • Clinical diagnosis of NASH was defined in this clinical trial as the existence of one or more of the following risk factors for NASH, namely: • a. Type 2 diabetes or elevated fasting blood sugar • b. Abdominal obesity • c. Elevated lipid levels, especially elevated levels of serum triglycerides • d. Hypertension, or • e. Low levels of HDL cholesterol • 5. For serum transaminases, ALT concentration for all patients at the time of screening was >1 and <5 times upper limit of normal (ULN) of the central lab in the absence of another cause of liver disease. If a patient had lab records in the past 6 months, ALT concentrations were <20 U/L female and <30 U/L male. AST concentration for all patients at the time of screening was <5× ULN • 6. […] Platelet counts≥120,000/mm^3 • 8. Female subjects were eligible for the study if they met the following criteria: • Are not pregnant or nursing • Women of child-bearing potential (defined as females who are not surgically sterile or who are not over the age of 52 and amenorrheic for at least 12 months) must utilize appropriate birth control throughout the study duration. Acceptable methods that may be used are abstinence, birth control pills (“The Pill”) or patch, diaphragm, IUD (coil), vaginal ring, condom, surgical sterilization or progestin implant or injection, or sexual activity limited to a sterile (e.g., vasectomized) male partner • 9. Male participants agreed to consistently and correctly use a condom in combination with one of the above methods of birth control from enrolment to 30 days after the last dose of study medication • 10. Participants were able to comply with dosing and able to complete the study schedule of assessments

With C[C@H](CCCC(C)(C)O)[C@H]1CC[C@H]2[C@@H]3CC=C4C[C@@H](OS(=O)(=O)O)CC[C@]4(C)[C@H]3CC[C@]12C [25HC3S, 25-hydroxycholesterol-3-sulfate] the “genes demethylated in promoter regions, Calcium signaling pathway” value ([1]; HG 72 h, then 25HC3S 4 h) was 19 genes, the “genes demethylated in promoter regions, MAPK signaling pathway” value ([1]; HG 72 h, then 25HC3S 4 h) was 23 genes and the “genes demethylated in promoter regions, cAMP signaling pathway” value ([1]; HG 72 h, then 25HC3S 4 h) was 28 genes. The “genes with 5mCpG converted to CpG in promoter regions” value ([1]; high glucose model) was 1074 genes, the “CREB5 expression, increase” value [2] was “up to 20 fold” and the “DUSP8 expression, increase” value [2] was 5 fold. The “FAS expression, decrease” value [2] was ~90%, the “HMGR expression, decrease” value [2] was ~90% and the “PGC1A expression, increase” value [2] was 12 fold. The “CL/F, Mean” value ([3]; 200 mg single oral dose, Healthy) was 171.25 ± 28.60 L/h, the “Plasma 25HC3S levels detectable up to, post-dose” value ([3]; Cohort 1 (50 mg) healthy subjects) was “up to 12 hours” and the “AUC0-inf higher in NASH subjects” value ([3]; Cohort 2) was “approximately 20%”. For the same compound, the “Geometric mean AUC0-12 and AUC0-last higher in NASH than healthy subjects” value ([3]; Cohort 2) was “approximately 30%”, the “Plasma 25HC3S levels detectable up to, post-dose” value ([3]; Cohort 2 (200 mg) healthy subjects) was “up to 16 hours” and the “geometric mean Cmax increase, NASH over healthy subjects” value ([3]; Cohorts 1 and 2) was 18-24%. The “exposure (AUC parameters), increasing trends in NASH subjects” value ([3]; NASH vs healthy) was “up to 31%”, the half-life ([3]; human, plasma, oral, 200 mg, across both healthy and NASH subject groups, 50 and 200 mg, read-out: T1/2, range of mean values) was 1.67 to 2.51 h and the Cmax ([3]; human, plasma, 50 mg, 50 mg single oral dose, Healthy) was 94 ± 27.3 ng/mL. The Cmax ([3]; human, plasma, 200 mg, 200 mg single oral dose, Healthy) was 260 ± 54.8 ng/mL, the “CL/F, mean (standard deviation)” value ([4]; 50 mg QD (n = 22)) was 150.6 (51.5) L/h and the “CL/F, mean (standard deviation)” value ([4]; 150 mg QD (n = 21)) was 176.6 (80.5) L/h. The “CL/F, mean (standard deviation)” value ([4]; 300 mg BID (n = 21)) was 166.2 (60.4) L/h, the AUC(0-t) ([4]; 50 mg QD (n = 22)) was 340 ng·h/mL and the Cmax ([4]; 50 mg QD (n = 22)) was 79.1 ng/mL. For the same compound, the half-life ([4]; 50 mg QD (n = 22)) was 2.7 h, the Tmax ([4]; 50 mg QD (n = 22)) was 2.4 h and the AUC(0-t) ([4]; 150 mg QD (n = 21)) was 1040 ng·h/mL. It also gave a Cmax ([4]; 150 mg QD (n = 21)) of 274 ng/mL, a half-life ([4]; 150 mg QD (n = 21)) of 2.7 h and a Tmax ([4]; 150 mg QD (n = 21)) of 2 h. For the same compound, the AUC(0-t) ([4]; 300 mg BID (n = 21)) was 2140 ng·h/mL, the Cmax ([4]; 300 mg BID (n = 21)) was 430 ng/mL and the half-life ([4]; 300 mg BID (n = 21)) was 2.4 h. The Tmax ([4]; 300 mg BID (n = 21)) was 2.3 h.
